According to patent publication US6087334A, “Anti-diabetic peptides” (Amylin Pharmaceuticals, Inc., priority 1998, dated 2000):
Where a SMILES comes first, the peptide text is derived from it. Bridges are numbered along the chain shown (N, C = ends). The star is where a group is joined. Pentanoyl(4-Me) = CC(C)CCC(=O)*

Columns and labels:
[1] = molecular target: T1, C1a receptor (C1a-type calcitonin receptor) (Rattus norvegicus, UniProt P32214); test: C1a/293 competitive binding, displacement of [125I]-human calcitonin (Example C); conditions: HEK293 plasma membranes (C1a/293), [125I]-human calcitonin 20 pM
T1 construct: expressed in transfected cells
T1 sequence (P32214 25-479 isoform P32214-2 limits assumed): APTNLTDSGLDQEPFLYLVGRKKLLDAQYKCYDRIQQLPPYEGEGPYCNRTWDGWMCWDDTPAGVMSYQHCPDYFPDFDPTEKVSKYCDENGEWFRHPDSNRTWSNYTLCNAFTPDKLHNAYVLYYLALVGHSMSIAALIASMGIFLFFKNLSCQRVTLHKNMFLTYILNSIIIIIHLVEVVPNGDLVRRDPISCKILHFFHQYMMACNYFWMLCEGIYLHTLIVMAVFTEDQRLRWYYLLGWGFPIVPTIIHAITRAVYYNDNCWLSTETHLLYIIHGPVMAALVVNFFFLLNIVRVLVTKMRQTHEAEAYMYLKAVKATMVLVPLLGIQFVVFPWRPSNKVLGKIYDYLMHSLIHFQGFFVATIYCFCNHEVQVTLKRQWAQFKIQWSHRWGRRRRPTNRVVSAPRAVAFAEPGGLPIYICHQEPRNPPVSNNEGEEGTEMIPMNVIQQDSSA
Protocol: Peptide compounds of the present invention may be evaluated for binding to the C1a receptor using the procedures described in Example C. The C1a receptor is the predominant mammalian calcitonin receptor subtype. C1a pcDNA construction and transfection were carried out as previously described (Albrandt et al. 1993, FEBS Letters, 325:225-232). HEK293 cell lines showing stable expression of the rat C1a-type calcitonin receptor (C1a/293) or the human C1a-type calcitonin receptor (1154/293) were selected by G418 resistance and limiting dilution culture methods. Plasma membranes were collected from homogenized HEK293 cells and used in the receptor binding assay. Individual test peptides at concentrations spanning 6 log units starting at around 10^-6 M were examined for their ability to displace [^125 I]-human calcitonin from the plasma membrane preparation using a 96-well microtiter plate format and scintillation counting with a Wallac LKB Beta plate counter. Competitive binding curves were constructed. Non-specific binding was measured in the presence of 100 nM calcitonin. Peptide potencies (IC50 's for competitive binding) were calculated by non-linear regression using Prism™ (version 2.01, GraphPAD Software, San Diego, Calif.).
C1a/293 Competitive Binding Studies:
Compounds were evaluated for competition in binding to the C1a receptor as follows:
(§1) Reference peptides used in these studies were purchased from Bachem (Torrance, Calif.). All other chemicals were of the highest commercial grade. [^35 S]-GTPγS was purchased from NEN Life Science Products, Inc., Pittsburgh, Pa. [^125 I]-human calcitonin was purchased from Amersham Pharmacia Biotech, Inc., Piscataway, N.J.
(§2) Methods for C1a pcDNA construction and transfection have been previously described (Albrandt, et al. 1993). HEK293 cell lines stably expressing the rat C1a-type calcitonin receptor (C1a/293) or the human C1a-type calcitonin receptor (1154/293) were selected by G418 resistance and limiting dilution culture methods.
(§3) Confluent cells were detached from tissue culture flasks by incubation with 5 mM EDTA in PBS. Cells were homogenized in ice-cold 20 mM HEPES, pH 7.4 with a Polytron homogenizer. Plasma membranes were collected using three cycles of washing in fresh buffer followed by centrifugation for 15 minutes at 48,000×g. The final membrane pellet was resuspended in 20 mM HEPES buffer containing 0.2 mM phenylmethylsulfonyl fluoride (PMSF) and stored at -70° C.
Assay buffer contained 5 μg/mL bestatin, 1 μg/mL phosphoramidon, 1 mg/mL bovine serum albumin (fraction V), 1 mg/mL bacitracin, 1 mM MgCl2, and 20 mM HEPES, pH 7.4. Membranes (2-5 μg membrane protein/well), [^125 I]-human calcitonin (20 pM), and peptides were combined in 200 μL buffer in 96-well microtiter plates. After a 60 minute incubation at room temperature, well contents were harvested onto polyethyleneimine-treated GF/B glass fiber pads using a Tomtec Mach II plate harvestor (Hamden, Conn.). Dried pads were combined with scintillant and counted on a Wallac LKB Beta Plate scintillation counter (Gaithersburg, Md.). For competitive binding curves, samples were run in duplicate over a 6 log concentration range starting at 10^-6 or 10^-7 M. Non-specific binding was measured in the presence of 100 nM human calcitonin.

[2] = molecular target: T1, C1a receptor (C1a-type calcitonin receptor); test: biochemical; conditions: HEK293 plasma membranes, [35S]-GTPγS 200 pM; read-out: ED50 (nM) Example B (C1a GTPγS)
Source text: Peptide compounds of the present invention may be evaluated for agonist activity using the procedures described in Example B. The plasma membrane preparation of a 7-transmembrane-G-protein coupled receptor (GPCR) contains not only the receptor but also the G-proteins which constitute the first step in the intracellular signal transduction process when the receptor is activated by an agonist ligand. […] Agonist activation of a GPCR is accompanied by displacement of GDP by GTP from this site. Thus, measurement of the binding of a radiolabelled ligand, namely [^35 S]-GTPγS, for this binding site constitutes a measure of agonist potency for a given ligand. For agonism at the C1a receptor, a similar membrane preparation to that described below for the C1a binding studies is used. C1a pcDNA construction and transfection were carried out as previously described (Albrandt et al. 1993, FEBS Letters, 325:225-232). HEK293 cell lines showing stable expression of the rat C1a-type calcitonin receptor (C1a/293) or the human C1a-type calcitonin receptor (1154/293) were selected by G418 resistance and limiting dilution culture methods. Plasma membranes were collected from homogenized HEK293 cells and used in the [^35 S]-GTPγS assay. Individual test peptides at concentrations spanning 6 log units starting at around […] were examined for their ability to bind [^35 S]-GTPγS. Maximum agonist-specific binding was measured in the presence of 1 μM human calcitonin, constitutive binding was measured in the presence of buffer alone. Peptide potencies (EC50 's for concentration response curves) were calculated by non-linear regression using Prism™ (version 2.01, GraphPAD Software, San Diego, Calif.).
[^35 S]-GTPγS C1a Agonist Studies
Evaluation of the agonist activity of compounds versus the C1a receptor was carried out as follows:
as §1
as §2, with “1993, FEBS Letters, 325:225-232).” for “1993).”
as §3
Assay buffer contained 1 μM GDP, 1 mM EDTA, 5 mM MgCl2, 20 mM Hepes, and 150 mM NaCl, pH 7.4. Membranes (7.5 μg membrane protein/well), [^35 S]-GTPγS (200 pM), and peptides were combined in 200 μL buffer in 96-well microtiter plates. After a 75 minute incubation at room temperature, well contents were harvested onto GF/B glass fiber pads using a Tomtec Mach II plate harvestor (Hamden, Conn.). Dried pads were combined with scintillant and counted on a Wallac LKB Beta Plate scintillation counter. For concentration response curves, samples were run in duplicate over a 6 log concentration range starting at 10^-6 M or 10^-7 M. Maximum agonist-specific binding was measured in the presence of 1 μM human calcitonin, constitutive binding was measured in the presence of buffer alone.
Peptide potencies (1C50 's for competitive binding, and EC50 's for concentration response curves) were calculated by non-linear regression using Prism (version 2.01, GraphPAD Software, San Diego, Calif.).

| SMILES | IC50 [1] [nM] | EC50 [2] [nM] |
| --- | --- | --- |
| CC(C)C[C@H](NC(=O)[C@H](CCCNC(=N)N)NC(=O)[C@H](CCC(N)=O)NC(=O)[C@@H](NC(=O)[C@H](C)NC(=O)[C@@H]1CSSC[C@H](NC(=O)[C@@H](N)CCCCN)C(=O)N[C@@H](CC(N)=O)C(=O)N[C@@H](C(C)C)C(=O)N[C@@H](C)C(=O)N[C@@H]([C@@H](C)O)C(=O)N1)[C@@H](C)O)C(=O)N[C@@H](C)C(=O)N[C@@H](CC(N)=O)C(=O)N[C@@H](Cc1ccccc1)C(=O)N[C@@H](CC(C)C)C(=O)N[C@H](C(=O)N[C@@H](CCCNC(=N)N)C(=O)N[C@@H](CO)C(=O)N[C@@H](CO)C(=O)NCC(=O)N[C@@H](Cc1ccc(O)cc1)C(N)=O)C(C)C [Example 2] (H-KCNVATCATQRLANFLVRSSGY-NH2; disulfide 2-7) | 0.128 | 2.6 |
| CC(C)CCC(=O)N[C@@H](CC(C)C)C(=O)N[C@@H](CO)C(=O)N[C@H](C(=O)N[C@@H](C)C(=O)N[C@@H](C)C(=O)N[C@H](C(=O)N[C@@H](C)C(=O)N[C@@H](CCCNC(=N)N)C(=O)N[C@@H](CC(C)C)C(=O)N[C@@H](C)C(=O)N[C@@H](C)C(=O)N[C@@H](Cc1ccccc1)C(=O)N[C@@H](CC(C)C)C(=O)N[C@@H](C)C(=O)N[C@@H](CCCNC(=N)N)C(=O)N[C@@H](CO)C(N)=O)[C@@H](C)O)[C@@H](C)O [Example 4] ({Pentanoyl(4-Me)}-LSTAATARLAAFLARS-NH2) | 0.66 | 0.73 |
| CC(C)C[C@H](NC(=O)[C@H](CCCNC(=N)N)NC(=O)[C@H](C)NC(=O)[C@@H](NC(=O)[C@H](C)NC(=O)[C@@H]1CSSC[C@H](N)C(=O)N[C@@H](CC(N)=O)C(=O)N[C@@H]([C@@H](C)O)C(=O)N[C@@H](C)C(=O)N[C@@H]([C@@H](C)O)C(=O)N1)[C@@H](C)O)C(=O)N[C@@H](C)C(=O)N[C@@H](C)C(=O)N[C@@H](Cc1ccccc1)C(=O)N[C@@H](CC(C)C)C(=O)N[C@@H](C)C(=O)N[C@@H](CCCNC(=N)N)C(N)=O [Example 7] (H-CNTATCATARLAAFLAR-NH2; disulfide 1-6) | 2.7 | 2.2 |
| CC(C)C[C@H](NC(=O)[C@H](CCCNC(=N)N)NC(=O)[C@H](CCC(N)=O)NC(=O)[C@@H](NC(=O)[C@H](C)NC(=O)[C@@H]1CSSC[C@H](NC(=O)[C@@H](N)CCCCN)C(=O)N[C@@H](CC(N)=O)C(=O)N[C@@H]([C@@H](C)O)C(=O)N[C@@H](C)C(=O)N[C@@H]([C@@H](C)O)C(=O)N1)[C@@H](C)O)C(=O)N[C@@H](C)C(=O)N[C@@H](C)C(=O)N[C@@H](Cc1ccccc1)C(=O)N[C@@H](CC(C)C)C(=O)N[C@H](C(=O)N[C@@H](CCCNC(=N)N)C(=O)N[C@@H](CO)C(=O)N[C@@H](CO)C(=O)NCC(=O)N[C@@H](Cc1ccc(O)cc1)C(N)=O)C(C)C [Example 8] (H-KCNTATCATQRLAAFLVRSSGY-NH2; disulfide 2-7) | 3.4 | 4.4 |
| CC(C)C[C@H](NC(=O)[C@H](CCCNC(=N)N)NC(=O)[C@H](CCC(N)=O)NC(=O)[C@@H](NC(=O)[C@H](C)NC(=O)[C@@H]1CSSC[C@H](NC(=O)[C@@H](N)CCCCN)C(=O)N[C@@H](CC(N)=O)C(=O)N[C@@H]([C@@H](C)O)C(=O)N[C@@H](C)C(=O)N[C@@H]([C@@H](C)O)C(=O)N1)[C@@H](C)O)C(=O)N[C@@H](C)C(=O)N[C@@H](CC(N)=O)C(=O)N[C@@H](Cc1ccccc1)C(=O)N[C@@H](CC(C)C)C(=O)N[C@H](C(=O)N[C@@H](CCCNC(=N)N)C(=O)N[C@@H](CO)C(=O)NCC(=O)N[C@@H](Cc1ccc(O)cc1)C(N)=O)C(C)C [Example 9] (H-KCNTATCATQRLANFLVRSGY-NH2; disulfide 2-7) | 4.1 | 8.6 |
| CC(C)C[C@H](NC(=O)[C@H](CCCNC(=N)N)NC(=O)[C@H](CCC(N)=O)NC(=O)[C@@H](NC(=O)[C@H](C)NC(=O)[C@@H]1CSSC[C@H](NC(=O)[C@@H](N)CCCCN)C(=O)N[C@@H](CC(N)=O)C(=O)N[C@@H]([C@@H](C)O)C(=O)N[C@@H](C)C(=O)N[C@@H]([C@@H](C)O)C(=O)N1)[C@@H](C)O)C(=O)N[C@@H](C)C(=O)N[C@@H](CC(N)=O)C(=O)N[C@@H](Cc1ccccc1)C(=O)N[C@@H](CC(C)C)C(=O)N[C@H](C(=O)N[C@@H](CCCNC(=N)N)C(=O)N[C@@H](C)C(=O)N[C@@H](CO)C(=O)NCC(=O)N[C@@H](Cc1ccc(O)cc1)C(N)=O)C(C)C [Example 10] (H-KCNTATCATQRLANFLVRASGY-NH2; disulfide 2-7) | 4.7 | 8 |
| CC(C)C[C@H](NC(=O)[C@H](CCCNC(=N)N)NC(=O)[C@H](CCC(N)=O)NC(=O)[C@@H](NC(=O)[C@H](C)NC(=O)[C@@H]1CSSC[C@H](NC(=O)[C@@H](N)CCCCN)C(=O)N[C@@H](CC(N)=O)C(=O)N[C@@H]([C@@H](C)O)C(=O)N[C@@H](C)C(=O)N[C@@H]([C@@H](C)O)C(=O)N1)[C@@H](C)O)C(=O)N[C@@H](C)C(=O)N[C@@H](CC(N)=O)C(=O)N[C@@H](Cc1ccccc1)C(=O)N[C@@H](CC(C)C)C(=O)N[C@H](C(=O)N[C@@H](Cc1c[nH]cn1)C(=O)N[C@@H](CO)C(=O)N[C@@H](CO)C(=O)NCC(=O)N[C@@H](Cc1ccc(O)cc1)C(N)=O)C(C)C [Example 11] (H-KCNTATCATQRLANFLVHSSGY-NH2; disulfide 2-7) | 8.3 | 14 |
